In PMC4462581 (PLoS ONE, 2015):

Assays:
[1] = test system: BoNT/E intoxication of human ES-MNs (SNAP-25 cleavage); format: cell-based
[2] = test system: BoNT/A intoxication of human ES-MNs (SNAP-25 cleavage); format: cell-based
[3] = test system: BoNT/A intoxication of mouse ES-MNs (SNAP-25 cleavage); format: cell-based
BoNT/A LC = BoNT/A LC (Clostridium botulinum, UniProt P0DPI0); test: biochemical
[4] = test system: BoNT/A intoxication of mouse ES-MNs (SNAP-25 cleavage); format: cell-based; remark: listed apart in the source

Chain of BoNT/A LC (P0DPI0 2-448 limits assumed): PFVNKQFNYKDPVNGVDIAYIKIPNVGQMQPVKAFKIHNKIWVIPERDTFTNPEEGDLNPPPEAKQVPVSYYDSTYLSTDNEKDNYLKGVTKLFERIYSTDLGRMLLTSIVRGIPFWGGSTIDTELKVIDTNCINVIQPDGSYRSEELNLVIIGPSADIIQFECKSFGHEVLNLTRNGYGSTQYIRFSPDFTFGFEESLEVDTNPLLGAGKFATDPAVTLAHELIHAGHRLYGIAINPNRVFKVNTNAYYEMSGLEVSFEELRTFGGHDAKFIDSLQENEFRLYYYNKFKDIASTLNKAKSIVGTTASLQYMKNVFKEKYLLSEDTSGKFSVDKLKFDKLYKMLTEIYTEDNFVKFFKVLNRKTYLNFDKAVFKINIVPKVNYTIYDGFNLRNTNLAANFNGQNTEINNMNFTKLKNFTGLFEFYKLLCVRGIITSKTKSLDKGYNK

SMILES	Protection of SNAP-25 against BoNT/E, 30 min post-intoxication [1]	Protection of SNAP-25 against BoNT/E, 60 min post-intoxication [1]	Antagonism of BoNT/A mediated SNAP-25 cleavage, 60 min post-intoxication [2]	Protection of SNAP-25 against BoNT/A, pre-intoxication, dose dependence [2]	Protection against BoNT/A (SNAP-25 cleavage), library screen outcome [3]	IC50 (BoNT/A LC)	Protection of SNAP-25 against BoNT/A, western blot [4]
N=C(N)c1ccc(OCCCCCOc2ccc(C(=N)N)cc2)cc1 [Pentamidine]	not statistically significant	not statistically significant	trended toward, but did not reach, statistical significance	qualitatively lower level of SNAP-25 cleavage protection	identified as potential BoNT/A intoxication inhibitors	> 20 µM	qualitatively lower level of SNAP-25 cleavage protection
O=C1C(Cl)=C(NCCN2CCOCC2)C(=O)c2ncccc21 [NSC 663284]	statistically significant protection	statistically significant protection			identified as potential BoNT/A intoxication inhibitors	> 20 µM	
CC1(C)C(=O)N=C2C1=C(O)C(=O)c1ccccc12 [BVT 948]	efficacious				identified as potential BoNT/A intoxication inhibitors	> 20 µM	
CO/C1=C\C(C)=C\[C@@H](C)[C@@H](O)[C@@H](C)C/C(C)=C/C=C/[C@H](OC)[C@@H]([C@@H](C)[C@@H](O)[C@H](C)[C@@]2(O)C[C@@H](O)[C@H](C)[C@@H](C(C)C)O2)OC1=O [bafilomycin]				dose-dependent protection			
O=C1C(=O)c2ccccc2-c2ccccc21 [9,10-Phenanthrenequinone]	statistically significant protection	statistically significant protection			identified as potential BoNT/A intoxication inhibitors	> 20 µM	
